Test results taken from publication PMC11145868, “Protein target similarity is positive predictor of in vitro antipathogenic activity: a drug repurposing strategy for Plasmodium falciparum” (Journal of Cheminformatics, 2024).
Counter-ions that a name gives are not always drawn. Like-named read-outs stand apart in the source and are kept apart here.

How the values were obtained:
[1] = test system: P. falciparum Dd2-HLH; assay: microbe, parasite or virus in culture; type: cell-based, Plasmodium falciparum
[2] = test system: P. falciparum Dd2-HLH; assay: microbe, parasite or virus in culture; type: cell-based, Plasmodium falciparum; details: read-out: Blood stage 72h EC50
[3] = molecular target: P. berghei-luciferase sporozoites; assay: microbe, parasite or virus in culture; type: cell-based, Plasmodium berghei
[4] = test system: HEK293T cells; assay: Mammalian cell cytotoxicity assay, HEK293T (CellTiter-Glo, 72 h); details: read-out: HEK CC50
[5] = in vitro; details: human
[6] = Mammalian cell cytotoxicity assay, HepG2 (CellTiter-Glo, 72 h); details: human
[7] = Mammalian cell cytotoxicity assay, HEK293T (CellTiter-Glo, 72 h); details: human, HEK293T cells
[8] = P. falciparum blood-stage parasites, 48 hours in culture, read-out: Blood stage 48h EC50
[9] = P. falciparum blood-stage parasites, 72 hours in culture
[10] = liver-stage parasites, 48 hours in culture, read-out: Liver stage 48h EC50
[11] = Plasmodium falciparum, DD2, P. falciparum blood-stage parasites, 72 hours in culture
[12] = Plasmodium berghei, HepG2, liver-stage parasites, 48 hours in culture, read-out: Liver stage 48h EC50
[13] = Plasmodium falciparum, DD2, Hec50, 48 h, read-out: Blood stage 48 h EC50
[14] = Plasmodium falciparum, DD2, 72 h
[15] = Plasmodium berghei, liver-stage parasites, 48 h in culture, read-out: Liver 48 h EC50
[16] = Plasmodium falciparum, DD2, 48 h, read-out: Blood stage 48h EC50

| Compound | EC50 [1, 8] | EC50 [2, 9] | EC50 [3, 10] | EC50 [3, 12] | CC50 [5] | EC50 [2, 14] | EC50 [1, 16] | also measured |
| --- | --- | --- | --- | --- | --- | --- | --- | --- |
| CCc1ccc(OCc2ccccc2C(=O)Nc2ccc3nc(C)cc(N)c3c2)cc1 [JTC-801] | 123 nM | 635 nM | 429 nM | – | – | – | – | CC50 ([4]; HEK293T cytotoxicity): 1810 nM |
| Cc1nc(N2CCN(Cc3ccc(F)cc3)C2=O)sc1C(=O)NCc1cccnc1 [XEN-723] | 158 nM | 334 nM | > 10000 nM | – | – | – | – | CC50 ([4]; HEK293T cells): 57 nM |
| C[C@@H]1C[C@@H]([C@H](O)CC2CC(=O)NC(=O)C2)C(=O)[C@@H](C)C1 [Cycloheximide] | – | – | – | 109 nM | 759 nM | – | – | EC50 ([1]; Plasmodium falciparum, DD2, P. falciparum blood-stage parasites, 48 hours in culture, read-out: Blood stage 48h EC50): 178 nM; EC50 [2, 11]: 301 nM |
| CS[C@H]1SC[C@H]2C(=O)N(C)[C@@H](C(C)C)C(=O)OC[C@@H](NC(=O)c3cnc4ccccc4n3)C(=O)N[C@@H](C)C(=O)N(C)[C@@H]1C(=O)N(C)[C@@H](C(C)C)C(=O)OC[C@@H](NC(=O)c1cnc3ccccc3n1)C(=O)N[C@@H](C)C(=O)N2C [Echinomycin] | – | – | – | 2 nM | 1 nM | – | – | EC50 [2, 11]: 3 nM; CC50 at 72 h [6]: 1 nM |
| COc1cc2c(Nc3ccc(NC(=O)c4ccccc4)cc3)ncnc2cc1OCCCN1CCOCC1 [ZM447439] | 452 nM | 643 nM | 4330 nM | – | – | – | – | CC50 ([4]; HEK293T cytotoxicity): > 9950 nM |
| Cc1ncc(NC(=O)c2ccc(CN3CCN(C)CC3)c(C(F)(F)F)c2)cc1Nc1nccc(-c2cccnc2)n1 [Flumatinib mesylate] | 85 nM | 213 nM | > 10000 nM | – | – | – | – | CC50 ([4]; HEK293T cells): > 9950 nM |
| Cc1[nH]c2ccccc2c1CCNCc1ccc(/C=C/C(=O)NO)cc1 [Panobinostat Lactate] | 20 nM | 51 nM | 131 nM | – | – | – | – | CC50 ([4]; HEK293T cells): 78 nM |
| COC(=O)C[C@](O)(CCCC(C)(C)O)C(=O)O[C@@H]1C(OC)=C[C@]23CCCN2CCc2cc4c(cc2[C@H]13)OCO4 [Homoharringtonine, reference compound] | – | – | – | – | 32 nM | 7 nM | – | EC50 [1, 13]: 6 nM; EC50 [3, 15]: 26 nM |
| O=C(CC1NCCCC1O)Cn1cnc2cc(Br)c(Cl)cc2c1=O (stereo not drawn) [Halofuginone, reference compound] | – | – | – | – | – | 1 nM | – | EC50 [1, 13]: 1 nM; EC50 [3, 15]: 70 nM; CC50 at 72 h [5]: 88 nM |
| CC[C@@]1(O)C[C@H](O[C@H]2C[C@H](N(C)C)[C@H](O[C@H]3C[C@H](O)[C@H](O[C@H]4CCC(=O)[C@H](C)O4)[C@H](C)O3)[C@H](C)O2)c2c(cc3c(c2O)C(=O)c2c(O)cccc2C3=O)[C@H]1C(=O)OC [Aclarubicin] | – | – | – | 2230 nM | 166 nM | 302 nM | 154 nM | – |
| Cc1cc(-c2cc(OC(=O)c3ccccc3)ccc2Cl)cc2nnc(Nc3ccc(OCCN4CCCC4)cc3)nc12 [TG-100801] | 68 nM | 205 nM | 1410 nM | – | – | – | – | CC50 ([4]; HEK293T cytotoxicity): > 9950 nM |
| CC(=O)[C@]1(O)Cc2c(O)c3c(c(O)c2[C@@H](O[C@H]2C[C@H](N)[C@H](O)[C@H](C)O2)C1)C(=O)c1ccccc1C3=O [Idarubicin] | – | – | – | 843 nM | 36 nM | 302 nM | 1870 nM | – |
| N[C@@H]1[C@H]2CN(c3nc4c(cc3F)c(=O)c(C(=O)O)cn4-c3ccc(F)cc3F)C[C@@H]12 [Trovafloxacin mesilate, reference compound] | – | – | – | > 10000 nM | > 9950 nM | 669 nM | – | EC50 ([1]; Plasmodium falciparum, DD2, read-out: EC50, antiplasmodial drug sensitivity assays in bloodstage): 9950 nM |
| CN[C@@H]1C[C@H]2O[C@@](C)([C@@H]1OC)n1c3ccccc3c3c4c(c5c6ccccc6n2c5c31)C(=O)N[C@H]4O [UCN-01] | 79 nM | 488 nM | 2150 nM | – | – | – | – | CC50 ([4]; HEK293T cytotoxicity): 74 nM |
| CO[C@H]1/C=C\C=C(/C)C(=O)NC2=CC(=O)C(NCCN(C)C)=C(C[C@@H](C)C[C@H](OC)[C@H](O)[C@@H](C)/C=C(\C)[C@@H]1OC(N)=O)C2=O [Alvespimycin hydrochloride] | – | – | – | 129 nM | 164 nM | 273 nM | 159 nM | – |
| Cc1ccc(CCCO)c(NCc2ccc3nc(NCCCN4CCOCC4)n(Cc4nc(C)ccc4O)c3c2)c1 [TMC-353121] | 319 nM | 650 nM | > 10000 nM | – | – | – | – | CC50 ([4]; HEK293T cells): > 9950 nM |
| O=C(Nc1ccccc1)N[C@@H]1C(=O)N(CC23CC4CC(CC(C4)C2)C3)c2ccccc2N(c2ccccc2)C1=O [GV 150013] | – | 253 nM | > 10000 nM | – | – | – | – | CC50 ([4]; HEK293T cells): > 9950 nM |
| CN(C)c1ccc2c(c1)Sc1cc(N(C)C)ccc1N2 [Leuco methylthioninium] | – | – | – | – | – | – | – | EC50 ([1]; read-out: Blood stage 48h EC50): 96 nM; EC50 [2]: 209 nM; EC50 ([3]; read-out: Liver stage 48h EC50): 3920 nM; CC50 ([4]; HEK293T cells): 3490 nM |
| C[C@@H](Oc1cc(-c2cnn(C3CCNCC3)c2)cnc1N)c1c(Cl)ccc(F)c1Cl [Crizotinib] | – | – | – | 8520 nM | > 9950 nM | 827 nM | 225 nM | – |
| O=C1c2ccccc2-n2c1nc1ccccc1c2=O [Tryptanthrin] | – | – | – | 41 nM | > 9950 nM | 562 nM | 737 nM | – |
| SN-38 | 507 nM | 358 nM | 1010 nM | – | – | – | – | CC50 ([4]; HEK293T cells): 79 nM |
| c1ccc(Cn2c(N3CCNCC3)nc3ccccc32)cc1 [Lerisetron] | – | – | – | 1130 nM | – | 267 nM | 144 nM | CC50 at 72 h ([6]; HepG2 cells): 236 nM; CC50 at 72 h [7]: > 9950 nM |
| CC(=O)O[C@H]1C(=O)[C@@]2(C)[C@H]([C@H](OC(=O)c3ccccc3)[C@]3(O)C[C@H](OC(=O)[C@H](O)[C@@H](NC(=O)c4ccccc4)c4ccccc4)C(C)=C1C3(C)C)[C@]1(OC(C)=O)CO[C@@H]1C[C@@H]2O [Paclitaxel] | – | – | – | 7530 nM | – | 186 nM | 164 nM | CC50 at 72 h ([6]; HepG2 cells): 7040 nM; CC50 at 72 h [7]: > 9950 nM |
| XL-888 | 201 nM | 348 nM | 99 nM | – | – | – | – | CC50 ([4]; HEK293T cytotoxicity): 47 nM |
| COc1ccc(C[C@H](N)C(=O)N[C@H]2[C@@H](O)[C@H](n3cnc4c(N(C)C)ncnc43)O[C@@H]2CO)cc1 [Puromycin] | – | – | – | 840 nM | – | 125 nM | 61 nM | CC50 at 72 h ([6]; HepG2 cells): 498 nM; CC50 at 72 h [7]: 1240 nM |
| COc1ccc(-c2nc(N3CCOCC3)c3sc(CN(C)c4ncc(C(=O)NO)cn4)cc3n2)cn1 [CUDC-907, reference compound] | – | – | – | – | – | 18 nM | 8 nM | EC50 [1, 13]: 7.5 nM; EC50 [3, 15]: 39 nM; CC50 at 72 h ([6]; HepG2 cells): 3 nM; CC50 at 72 h [7]: 27 nM |
| COc1cc2nc(-c3ccc(N4CCN(C)CC4)cc3)nc(NCCN3CCOCC3)c2cc1OC [CPG-52364] | 100 nM | 381 nM | 1100 nM | – | – | – | – | CC50 ([4]; HEK293T cells): 1640 nM |
| COc1ccc(-c2ccc3ncc4c(c3c2)n(-c2ccc(N3CCNCC3)c(C(F)(F)F)c2)c(=O)n4C)cn1 [NVP-BGT226, reference compound] | – | – | – | 1 nM | – | 6 nM | 1 nM | EC50 [1, 13]: 0.6 nM; EC50 [3, 15]: 0.5 nM; CC50 at 72 h ([6]; HepG2 cells): 3 nM; CC50 at 72 h [7]: 35 nM |
| CC1=C(c2ccc(O)cc2)[C@H](c2ccc(OCCN3CCCCC3)cc2)Oc2cc(O)ccc21 [Acolbifene] | – | – | – | 2830 nM | – | 728 nM | 218 nM | CC50 at 72 h ([6]; HepG2 cells): 6210 nM; CC50 at 72 h [7]: 2990 nM |
| O=C(NO)c1cnc(N2C[C@@H]3[C@H](C2)[C@H]3NCc2ccc3cc(F)ccc3n2)nc1 [CHR-3996] | – | – | – | 151 nM | – | 15 nM | 20 nM | CC50 at 72 h ([6]; HepG2 cells): 195 nM; CC50 at 72 h [7]: 920 nM |
